Measured values reported in the NIST ThermoML archive (doi:10.1021/acs.jced.6b00496).
Numbers after ± are expanded uncertainties.

Assay: xn = mol fraction of the nth substance listed
Conditions: 81.5 kPa, Liquid; for speed of sound: Sing-around technique in a fixed-path interferometer; for mass density: Vibrating tube method

CCn1cc[n+](C)c1.F[B-](F)(F)F [1-ethyl-3-methylimidazolium tetrafluoroborate] + CC(=O)N(C)C
Conditions | mass density [kg/m3] | speed of sound [m/s]
293.15 K, x1 = 0.131 | 1020.02 ± 4.1 | 1520.9 ± 3.3
293.15 K, x1 = 0.198 | 1054.86 ± 4.2 | 1544.9 ± 3.3
293.15 K, x1 = 0.2976 | 1098.69 ± 4.4 | 1566.5 ± 3.3
293.15 K, x1 = 0.3868 | 1134.17 ± 4.6 | 1581.8 ± 3.4
293.15 K, x1 = 0.4734 | 1164.33 ± 4.7 | 1594.3 ± 3.4
293.15 K, x1 = 0.563 | 1190.97 ± 4.8 | 1606.8 ± 3.5
293.15 K, x1 = 0.7089 | 1230.24 ± 5 | 1620 ± 3.5
293.15 K, x1 = 0.7973 | 1244.59 ± 5.1 | 1625.7 ± 3.6
293.15 K, x1 = 0.8821 | 1257.25 ± 5.2 | 1629.9 ± 3.6
293.15 K, x1 = 1 | 1285.95 ± 5.3 | 1640.4 ± 3.7
298.15 K, x1 = 0.131 | 1015.67 ± 4.1 | 1502.5 ± 3.3
298.15 K, x1 = 0.198 | 1050.63 ± 4.2 | 1527.6 ± 3.3
298.15 K, x1 = 0.2976 | 1094.55 ± 4.4 | 1550.4 ± 3.3
298.15 K, x1 = 0.3868 | 1130.11 ± 4.6 | 1566.4 ± 3.4
298.15 K, x1 = 0.4734 | 1160.32 ± 4.7 | 1579.8 ± 3.4
298.15 K, x1 = 0.563 | 1187.07 ± 4.8 | 1592.9 ± 3.5
298.15 K, x1 = 0.7089 | 1226.34 ± 5 | 1606.9 ± 3.5
298.15 K, x1 = 0.7973 | 1240.73 ± 5.1 | 1613 ± 3.6
298.15 K, x1 = 0.8821 | 1253.4 ± 5.1 | 1617.4 ± 3.6
298.15 K, x1 = 1 | 1282.14 ± 5.3 | 1628.4 ± 3.7
303.15 K, x1 = 0.131 | 1011.32 ± 4.1 | 1484.4 ± 3.3
303.15 K, x1 = 0.198 | 1046.39 ± 4.2 | 1510.4 ± 3.3
303.15 K, x1 = 0.2976 | 1090.43 ± 4.4 | 1534.3 ± 3.3
303.15 K, x1 = 0.3868 | 1126.06 ± 4.5 | 1551.3 ± 3.4
303.15 K, x1 = 0.4734 | 1156.33 ± 4.7 | 1565.3 ± 3.4
303.15 K, x1 = 0.563 | 1183.16 ± 4.8 | 1579.1 ± 3.5
303.15 K, x1 = 0.7089 | 1222.46 ± 5 | 1594.1 ± 3.5
303.15 K, x1 = 0.7973 | 1236.88 ± 5.1 | 1600.4 ± 3.6
303.15 K, x1 = 0.8821 | 1249.55 ± 5.1 | 1605.1 ± 3.6
303.15 K, x1 = 1 | 1278.34 ± 5.3 | 1616 ± 3.7
308.15 K, x1 = 0.131 | 1006.92 ± 4 | 1466.5 ± 3.3
308.15 K, x1 = 0.198 | 1042.17 ± 4.2 | 1493.4 ± 3.3
308.15 K, x1 = 0.2976 | 1086.31 ± 4.4 | 1518.5 ± 3.3
308.15 K, x1 = 0.3868 | 1122.03 ± 4.5 | 1536.2 ± 3.4
308.15 K, x1 = 0.4734 | 1152.37 ± 4.6 | 1551.1 ± 3.4
308.15 K, x1 = 0.563 | 1179.25 ± 4.8 | 1565.5 ± 3.5
308.15 K, x1 = 0.7089 | 1218.61 ± 5 | 1581.4 ± 3.5
308.15 K, x1 = 0.7973 | 1233.06 ± 5 | 1588 ± 3.6
308.15 K, x1 = 0.8821 | 1245.73 ± 5.1 | 1592.9 ± 3.6
308.15 K, x1 = 1 | 1274.55 ± 5.3 | 1604.9 ± 3.7
313.15 K, x1 = 0.131 | 1002.63 ± 4 | 1448.8 ± 3.3
313.15 K, x1 = 0.198 | 1037.96 ± 4.2 | 1476.5 ± 3.3
313.15 K, x1 = 0.2976 | 1082.21 ± 4.3 | 1502.7 ± 3.3
313.15 K, x1 = 0.3868 | 1118 ± 4.5 | 1521.4 ± 3.4
313.15 K, x1 = 0.4734 | 1148.41 ± 4.6 | 1536.9 ± 3.4
313.15 K, x1 = 0.563 | 1175.34 ± 4.8 | 1552.1 ± 3.5
313.15 K, x1 = 0.7089 | 1214.78 ± 4.9 | 1568.8 ± 3.5
313.15 K, x1 = 0.7973 | 1229.25 ± 5 | 1575.7 ± 3.6
313.15 K, x1 = 0.8821 | 1241.92 ± 5.1 | 1580.8 ± 3.6
313.15 K, x1 = 1 | 1270.78 ± 5.2 | 1593.4 ± 3.7
318.15 K, x1 = 0.131 | 998.322 ± 4 | 1431.2 ± 3.3
318.15 K, x1 = 0.198 | 1033.75 ± 4.1 | 1459.8 ± 3.3
318.15 K, x1 = 0.2976 | 1078.11 ± 4.3 | 1487.1 ± 3.3
318.15 K, x1 = 0.3868 | 1113.98 ± 4.5 | 1506.6 ± 3.4
318.15 K, x1 = 0.4734 | 1144.47 ± 4.6 | 1522.9 ± 3.4
318.15 K, x1 = 0.563 | 1171.44 ± 4.7 | 1538.7 ± 3.5
318.15 K, x1 = 0.7089 | 1210.93 ± 4.9 | 1556.3 ± 3.5
318.15 K, x1 = 0.7973 | 1225.46 ± 5 | 1563.5 ± 3.6
318.15 K, x1 = 0.8821 | 1238.13 ± 5.1 | 1568.9 ± 3.6
318.15 K, x1 = 1 | 1267.03 ± 5.2 | 1582 ± 3.7
323.15 K, x1 = 0.131 | 994.081 ± 4 | 1413.7 ± 3.3
323.15 K, x1 = 0.198 | 1029.41 ± 4.1 | 1443.1 ± 3.3
323.15 K, x1 = 0.2976 | 1074.03 ± 4.3 | 1471.6 ± 3.3
323.15 K, x1 = 0.3868 | 1109.98 ± 4.5 | 1491.9 ± 3.4
323.15 K, x1 = 0.4734 | 1140.55 ± 4.6 | 1509 ± 3.4
323.15 K, x1 = 0.563 | 1167.54 ± 4.7 | 1525.4 ± 3.5
323.15 K, x1 = 0.7089 | 1207.14 ± 4.9 | 1543.9 ± 3.5
323.15 K, x1 = 0.7973 | 1221.69 ± 5 | 1551.4 ± 3.6
323.15 K, x1 = 0.8821 | 1234.36 ± 5.1 | 1557 ± 3.6
323.15 K, x1 = 1 | 1263.3 ± 5.2 | 1570.6 ± 3.7
328.15 K, x1 = 0.131 | 990.013 ± 4 | 1396.4 ± 3.3
328.15 K, x1 = 0.198 | 1025.2 ± 4.1 | 1426.6 ± 3.3
328.15 K, x1 = 0.2976 | 1069.95 ± 4.3 | 1456.1 ± 3.3
328.15 K, x1 = 0.3868 | 1105.98 ± 4.5 | 1477.4 ± 3.4
328.15 K, x1 = 0.4734 | 1136.62 ± 4.6 | 1495.2 ± 3.4
328.15 K, x1 = 0.563 | 1163.66 ± 4.7 | 1512.2 ± 3.5
328.15 K, x1 = 0.7089 | 1203.38 ± 4.9 | 1531.6 ± 3.5
328.15 K, x1 = 0.7973 | 1217.94 ± 5 | 1539.4 ± 3.6
328.15 K, x1 = 0.8821 | 1230.61 ± 5 | 1545.3 ± 3.6
328.15 K, x1 = 1 | 1259.58 ± 5.2 | 1559.4 ± 3.7
333.15 K, x1 = 0.131 | 986.018 ± 4 | 1379 ± 3.3
333.15 K, x1 = 0.198 | 1021.01 ± 4.1 | 1410.2 ± 3.3
333.15 K, x1 = 0.2976 | 1065.88 ± 4.3 | 1440.9 ± 3.3
333.15 K, x1 = 0.3868 | 1101.99 ± 4.4 | 1462.9 ± 3.4
333.15 K, x1 = 0.4734 | 1132.72 ± 4.6 | 1481.5 ± 3.4
333.15 K, x1 = 0.563 | 1159.8 ± 4.7 | 1499.1 ± 3.4
333.15 K, x1 = 0.7089 | 1199.69 ± 4.9 | 1519.4 ± 3.5
333.15 K, x1 = 0.7973 | 1214.19 ± 5 | 1527.4 ± 3.6
333.15 K, x1 = 0.8821 | 1226.87 ± 5 | 1533.6 ± 3.6
333.15 K, x1 = 1 | 1255.88 ± 5.2 | 1548.2 ± 3.7
338.15 K, x1 = 0.131 | 982.059 ± 3.9 | 1361.9 ± 3.3
338.15 K, x1 = 0.198 | 1016.81 ± 4.1 | 1393.9 ± 3.3
338.15 K, x1 = 0.2976 | 1061.83 ± 4.3 | 1425.7 ± 3.3
338.15 K, x1 = 0.3868 | 1098.01 ± 4.4 | 1448.6 ± 3.4
338.15 K, x1 = 0.4734 | 1128.83 ± 4.6 | 1467.9 ± 3.4
338.15 K, x1 = 0.563 | 1155.95 ± 4.7 | 1486.1 ± 3.4
338.15 K, x1 = 0.7089 | 1195.92 ± 4.9 | 1507.3 ± 3.5
338.15 K, x1 = 0.7973 | 1210.46 ± 4.9 | 1515.6 ± 3.6
338.15 K, x1 = 0.8821 | 1223.16 ± 5 | 1528.1 ± 3.6
338.15 K, x1 = 1 | 1252.2 ± 5.2 | 1537.2 ± 3.7
343.15 K, x1 = 0.131 | 978.076 ± 3.9 | 1344.8 ± 3.3
343.15 K, x1 = 0.198 | 1012.61 ± 4.1 | 1377.7 ± 3.3
343.15 K, x1 = 0.2976 | 1057.78 ± 4.2 | 1410.6 ± 3.3
343.15 K, x1 = 0.3868 | 1094.04 ± 4.4 | 1434.4 ± 3.4
343.15 K, x1 = 0.4734 | 1124.94 ± 4.5 | 1454.4 ± 3.4
343.15 K, x1 = 0.563 | 1152.06 ± 4.7 | 1473 ± 3.4
343.15 K, x1 = 0.7089 | 1192.22 ± 4.8 | 1495.4 ± 3.5
343.15 K, x1 = 0.7973 | 1206.75 ± 4.9 | 1503.8 ± 3.6
343.15 K, x1 = 0.8821 | 1219.46 ± 5 | 1510.6 ± 3.6
343.15 K, x1 = 1 | 1248.54 ± 5.2 | 1526.2 ± 3.7
